Laboratory results taken from patent US12428442B2, “Compounds, compositions and methods for synthesis” (WAVE LIFE SCIENCES LTD., priority 2017, dated 2025).

assay: Measuring pKa value of amino alcohols by titration against NaOH in MDA/KCl; conditions: MDA = Methanol-Dioxane-Acetonitrile, 1:1:1
Protocol: To this clear solution was added 6 μL of con. HCl and stirred well. This solution was titrated against 1 M NaOH solution. NaOH solution was added in 2 (or 4) ml increments. During the addition of each increment of NaOH solution, pH of the solution was recorded using a pH meter until a pH of 12 was measured. The measured titration values were analyzed (graph pad software was used) to determine the first derivative of the volume of NaOH used in the titration. This first derivative value is the pKa of the amino alcohol.

SMILES	solubility of sample in MDA mixture
C[Si](C[C@H](O)[C@@H]1CCCCN1)(C1CCCCC1)C1CCCCC1 [WV-CA-046]	Insoluble in MDA mixture
C[Si](C[C@@H](O)[C@@H]1CCCCN1)(C1CCCCC1)C1CCCCC1 [WV-CA-045]	Insoluble in MDA mixture
C[Si](C[C@@H](O)[C@@H]1CCCN1)(C1CCCCC1)C1CCCCC1 [WV-CA-041-L]	Sample Insoluble in MDA
C[Si](C[C@H](O)[C@H]1CCCN1)(C1CCCCC1)C1CCCCC1 [WV-CA-041-D]	Sample Insoluble in MDA
